Biological target: Sodium-dependent serotonin transporter (Homo sapiens) (UniProt P31645)
Details: COS-7, at 100 nM
Description: Inhibition of [3H]5-hydroxytryptamine reuptake at human SERT expressed in african green monkey COS7 cells at 100 nM
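Note: measures inhibition of [3H]5-hydroxytryptamine uptake through human SERT expressed in COS-7 cells.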

Chain of Sodium-dependent serotonin transporter (Homo sapiens) (P31645 whole entry, looked up): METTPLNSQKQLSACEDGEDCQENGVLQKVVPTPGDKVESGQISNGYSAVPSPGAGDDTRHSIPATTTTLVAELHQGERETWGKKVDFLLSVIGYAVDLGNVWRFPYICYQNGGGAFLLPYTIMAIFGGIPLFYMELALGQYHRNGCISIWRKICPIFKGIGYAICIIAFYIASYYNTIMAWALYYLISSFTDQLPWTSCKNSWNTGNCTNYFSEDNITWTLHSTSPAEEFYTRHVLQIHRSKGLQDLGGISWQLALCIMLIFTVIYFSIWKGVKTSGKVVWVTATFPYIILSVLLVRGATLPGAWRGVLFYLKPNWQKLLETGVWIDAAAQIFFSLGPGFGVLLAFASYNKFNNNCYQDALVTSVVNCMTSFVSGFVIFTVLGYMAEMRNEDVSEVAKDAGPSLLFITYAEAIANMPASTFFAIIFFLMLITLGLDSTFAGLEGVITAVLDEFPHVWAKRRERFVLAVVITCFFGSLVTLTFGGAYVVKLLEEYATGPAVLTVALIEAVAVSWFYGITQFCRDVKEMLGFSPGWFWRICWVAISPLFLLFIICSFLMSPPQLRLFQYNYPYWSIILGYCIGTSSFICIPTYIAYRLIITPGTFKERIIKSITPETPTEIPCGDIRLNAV

SMILES	inhibition [%]
CN(C)CCCC1(c2ccc(F)cc2)OC(C)(C)c2cc(C#N)ccc21 (stereo unspecified)	0.74
CN(C)CCCC1(c2ccc(F)cc2)OC(C)(C)c2ccccc21 (stereo unspecified)	0.71
CN(C)CCCC1(c2ccccc2)OC(C)(C)c2cc(C#N)ccc21 (stereo unspecified)	0.69
CN(C)CCCC1(c2ccccc2)OC(C)(C)c2ccccc21 (stereo unspecified)	0.31
CN(C)CCCC1(c2ccccc2)OCc2ccccc21 (stereo unspecified)	8.66
CNCCCC1(c2ccccc2)OCc2ccccc21 (stereo unspecified)	9.76
CN(C)CCCC1(c2ccccc2)OCc2cc(C#N)ccc21 (stereo unspecified)	27.4
CNCCCC1(c2ccc(F)cc2)OC(C)(C)c2ccccc21 (stereo unspecified)	3.89
CNCCCC1(c2ccccc2)OCc2cc(C#N)ccc21 (stereo unspecified)	53.9
CNCCC(Oc1ccccc1OC)c1ccccc1 (stereo unspecified)	12.8
CNCCCC1(c2ccc(F)cc2)OCc2ccccc21 (stereo unspecified)	20.8
CNCCCC1(c2ccccc2)OC(C)(C)c2ccccc21 (stereo unspecified)	1.65
CNCCCC1(c2ccccc2)OC(C)(C)c2cc(C#N)ccc21 (stereo unspecified)	7.23
CNCCCC1(c2ccc(F)cc2)OCc2cc(C#N)ccc21 (stereo unspecified)	55.5
CN(C)CCCC1(c2ccc(F)cc2)OCc2ccccc21 (stereo unspecified)	26.6
CNCCCC1(c2ccc(F)cc2)OC(C)(C)c2cc(C#N)ccc21 (stereo unspecified)	6.56

From ChEMBL document CHEMBL1150287
